Tests used:
Test in all cases: relative viability (nuclei count vs DMSO), 5 days (fraction); higher = more cells survive
[1] = compound: O=C(NC1CCNCC1)c1n[nH]cc1NC(=O)c1c(Cl)cccc1Cl [AT-7519] + CS(=O)(=O)CCNCc1ccc(-c2ccc3ncnc(Nc4ccc(OCc5cccc(F)c5)c(Cl)c4)c3c2)o1 [Lapatinib] (partner 2 µM)
In short: (§1)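 Lung cancer cell lines in 1536-well plates were dosed by pin tool the day after seeding, either with one drug alone or with a fixed anchor-drug dose plus five library-drug doses (not always all listed) in √10 steps. After 5 days, cells were fixed and their nuclei stained in one step (final 0.05% Triton X-100, 1% formaldehyde, 1 ug/ml Hoechst), then counted on 4× images. Relative viability is the nuclei count in treated wells divided by that in vehicle wells. Values are medians of duplicate plates.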

[2] = compound: C1=CC2=C(C=C(C(=C2N=C1)O)N=NC3=CC4=C(C=C3)C=C(C=C4)S(=O)(=O)O)S(=O)(=O)O + COc1cc2c(Oc3ccc(NC(=O)C4(C(=O)Nc5ccc(F)cc5)CC4)cc3F)ccnc2cc1OCCCN1CCOCC1 [Foretinib] (partner 0.25 µM)
In short: as §1

[3] = compound: O=C(NC1CCNCC1)c1n[nH]cc1NC(=O)c1c(Cl)cccc1Cl [AT-7519] + Nc1nc2[nH]cc(CCc3ccc(C(=O)N[C@@H](CCC(=O)O)C(=O)O)cc3)c2c(=O)[nH]1 [Pemetrexed] (partner 0.2 µM)
In short: as §1

[4] = compound: O=C(NC1CCNCC1)c1n[nH]cc1NC(=O)c1c(Cl)cccc1Cl [AT-7519] + COc1cccc2cc(-c3nc([C@H]4CC[C@H](C(=O)O)CC4)n4ncnc(N)c34)[nH]c12 [OSI-027] (partner 0.5 µM)
In short: as §1

Cell Line	relative viability ([1]; first compound 0.01 µM)	relative viability ([1]; first compound 0.03162 µM)	relative viability ([1]; first compound 0.3162 µM)	relative viability ([1]; first compound 1 µM)	relative viability ([2]; first compound 0.08 µM)	relative viability ([2]; first compound 0.253 µM)	relative viability ([2]; first compound 0.8 µM)	relative viability ([2]; first compound 2.53 µM)	relative viability ([2]; first compound 8 µM)	relative viability ([3]; first compound 0.01 µM)	relative viability ([3]; first compound 0.03162 µM)	relative viability ([3]; first compound 0.3162 µM)	relative viability ([3]; first compound 1 µM)	relative viability ([4]; first compound 0.01 µM)	relative viability ([4]; first compound 0.03162 µM)	relative viability ([4]; first compound 0.3162 µM)	relative viability ([4]; first compound 1 µM)
201T	1.06	1.03	1.07	1.06	1.21	1.14	1.15	1.15	1.05	0.343	0.311	0.288	0.331	0.694	0.739	1.01	0.812
A549	0.879	1.01	0.856	0.349	1.06	0.954	0.929	0.928	0.928	–	–	–	–	–	–	–	–
A-427	1.1	0.989	1.03	0.929	0.986	1.06	1.01	1.08	1.03	1.06	0.965	1.07	1.01	0.419	0.389	0.477	0.187
ABC-1	0.984	0.909	0.986	0.966	1.19	1.02	0.915	1.27	0.374	–	–	–	–	0.523	0.455	0.326	0.151
BEN	0.834	0.68	0.781	0.55	0.489	0.521	0.732	0.686	0.429	0.713	0.766	0.823	0.706	0.541	0.278	0.55	0.412
CAL-12T	–	0.538	0.386	0.186	1.08	1.25	1.12	1.06	0.772	1.23	1.11	0.584	0.147	0.673	0.649	0.296	0.135
COR-L23	1.14	0.786	0.325	0.121	1.01	0.961	1.02	1.06	0.995	0.182	0.184	0.211	0.173	0.672	0.778	0.459	0.294
COR-L 105	0.397	0.397	0.319	0.293	0.961	0.94	1.03	1.02	0.886	1.26	1.08	1.07	0.657	0.6	0.58	0.674	0.401
Calu-6	1.12	1.07	0.988	0.18	0.887	0.846	0.92	0.886	0.912	–	–	–	–	–	–	–	–
ChaGo-K-1	–	–	–	–	0.953	0.986	0.855	1.02	0.927	0.27	0.267	0.276	0.254	0.642	0.556	0.457	0.447
EBC-1	0.234	0.2	0.213	0.178	0.1	0.106	0.104	0.0986	0.0948	–	–	–	–	–	–	–	–
EKVX	0.203	0.198	0.186	0.172	0.818	0.712	0.797	0.861	0.272	0.423	0.342	0.246	0.463	0.725	0.536	0.687	0.709
EMC-BAC-2	0.866	0.85	0.889	0.886	1.07	0.987	1.04	1.07	0.842	0.464	0.442	0.438	0.514	0.363	0.343	0.358	0.476
EPLC-272H	0.979	0.913	0.652	1.07	0.779	0.752	0.704	0.646	0.723	0.268	0.328	0.303	0.0761	0.283	0.296	0.264	0.206
H3255	0.282	0.232	0.294	0.212	0.693	0.851	0.835	0.916	0.628	0.559	0.589	0.499	0.503	0.572	0.517	0.591	0.508
HARA	0.804	0.622	0.604	0.681	1.23	0.896	0.914	0.901	0.821	0.234	0.298	0.25	0.296	0.425	0.36	0.523	0.423
HCC-15	0.891	0.828	0.692	0.5	1.15	0.972	0.936	1.07	0.985	0.217	0.225	0.205	0.204	0.673	0.632	0.54	0.34
HCC-44	0.984	1.05	1.1	0.979	–	–	–	–	–	0.622	0.696	0.65	0.703	0.516	0.493	0.28	0.317
HCC-78	0.837	0.79	1.08	0.878	0.608	0.571	0.525	0.563	0.3	0.916	0.885	0.88	0.884	0.386	0.395	0.349	0.341

Cell Line	relative viability ([1]; first compound 0.01 µM)	relative viability ([1]; first compound 0.03162 µM)	relative viability ([1]; first compound 0.3162 µM)	relative viability ([1]; first compound 1 µM)	relative viability ([2]; first compound 0.08 µM)	relative viability ([2]; first compound 0.253 µM)	relative viability ([2]; first compound 0.8 µM)	relative viability ([2]; first compound 2.53 µM)	relative viability ([2]; first compound 8 µM)	relative viability ([3]; first compound 0.01 µM)	relative viability ([3]; first compound 0.03162 µM)	relative viability ([3]; first compound 0.3162 µM)	relative viability ([3]; first compound 1 µM)	relative viability ([4]; first compound 0.01 µM)	relative viability ([4]; first compound 0.03162 µM)	relative viability ([4]; first compound 0.3162 µM)	relative viability ([4]; first compound 1 µM)
HCC-366	0.868	1.08	0.797	0.243	0.927	0.92	0.891	0.964	0.851	0.178	0.162	0.185	0.216	0.769	0.808	0.89	0.718
HCC-827	0.21	0.165	0.162	0.157	1.12	0.955	0.995	1.05	1.08	0.301	0.247	0.276	0.243	0.842	0.72	0.705	0.539
HOP-62	1.03	0.963	1.06	1.05	1.23	1.03	1.13	1.15	1.04	0.359	0.335	0.302	0.328	0.857	0.675	0.846	0.809
IA-LM	0.911	0.821	0.658	0.0627	1.3	1.01	1.1	1.18	1.12	–	–	–	–	–	–	–	–
LC-2-ad	1.03	1.05	0.922	0.744	1.13	0.874	0.966	0.906	0.865	0.263	0.276	0.28	0.268	0.733	0.866	0.862	0.514
LCLC-97TM1	0.83	0.732	0.805	0.758	0.938	0.932	0.865	0.93	0.986	0.182	0.156	0.152	0.165	0.566	0.616	0.422	0.21
LCLC-103H	–	–	–	–	0.87	0.852	0.684	0.749	0.747	0.461	0.476	0.437	0.401	0.455	0.479	0.46	0.456
LK-2	0.816	0.951	0.706	0.706	1.33	1.3	0.899	0.911	1.37	0.305	0.259	0.212	0.201	0.182	0.217	0.19	0.189
LOU-NH91	0.786	0.736	0.795	0.673	0.974	0.946	0.93	0.917	1.01	0.306	0.359	0.385	0.506	0.738	0.742	0.72	0.711
NCI-H441	–	–	–	–	1.11	1.06	1.04	1.07	1.05	0.283	0.266	0.263	0.198	0.679	0.603	0.582	0.408
NCI-H522	–	–	–	–	–	–	–	–	–	0.992	0.943	1.03	0.929	–	0.77	0.609	0.792
NCI-H727	0.641	0.82	0.486	0.235	0.939	0.759	0.835	1.03	0.774	–	–	–	–	0.68	0.632	0.517	0.408
NCI-H1299	0.994	0.977	0.975	0.58	1.17	1.04	1.04	1.09	1.06	–	–	–	–	–	–	–	–
NCI-H1623	–	–	–	–	0.845	0.874	0.854	0.832	0.6	–	–	–	–	0.529	0.424	0.432	0.362
NCI-H1648	–	–	–	–	–	–	–	–	–	0.806	–	0.666	0.691	0.265	–	0.262	0.293
NCI-H1703	1.03	0.955	0.821	0.206	0.334	–	0.356	0.363	0.302	–	–	–	–	–	–	–	–
NCI-H1792	0.673	0.845	0.98	0.94	–	–	–	–	–	0.612	0.645	0.666	0.919	–	–	0.869	0.791
NCI-H2342	–	–	–	–	1.22	1.1	1.15	1.11	1.05	0.789	0.743	0.762	0.687	0.628	0.533	0.591	0.62
SW 900	–	–	–	–	0.806	0.9	0.912	0.786	0.741	0.453	0.425	0.452	0.478	0.489	0.581	0.624	0.424
